According to patent US20230151003A1, “COMPOUNDS AND METHODS OF USE” (Exelixis, Inc., priority 2020, published 2023):
Structures can show the parent of a compound that is named as a salt.

How the values were obtained:
Mer = target: T1, Mer (Homo sapiens, UniProt Q12866); assay: Mer autophosphorylation ELISA in transient transfected 293A cells; assay type: cell-based; conditions: Table 3 Cellular Activities; MERTK-transfected 293A cells, phospho-Mer ELISA
T1 construct: host or cells: 293A cells (Thermo Fisher #R70507)
T1 sequence (Q12866 21-999): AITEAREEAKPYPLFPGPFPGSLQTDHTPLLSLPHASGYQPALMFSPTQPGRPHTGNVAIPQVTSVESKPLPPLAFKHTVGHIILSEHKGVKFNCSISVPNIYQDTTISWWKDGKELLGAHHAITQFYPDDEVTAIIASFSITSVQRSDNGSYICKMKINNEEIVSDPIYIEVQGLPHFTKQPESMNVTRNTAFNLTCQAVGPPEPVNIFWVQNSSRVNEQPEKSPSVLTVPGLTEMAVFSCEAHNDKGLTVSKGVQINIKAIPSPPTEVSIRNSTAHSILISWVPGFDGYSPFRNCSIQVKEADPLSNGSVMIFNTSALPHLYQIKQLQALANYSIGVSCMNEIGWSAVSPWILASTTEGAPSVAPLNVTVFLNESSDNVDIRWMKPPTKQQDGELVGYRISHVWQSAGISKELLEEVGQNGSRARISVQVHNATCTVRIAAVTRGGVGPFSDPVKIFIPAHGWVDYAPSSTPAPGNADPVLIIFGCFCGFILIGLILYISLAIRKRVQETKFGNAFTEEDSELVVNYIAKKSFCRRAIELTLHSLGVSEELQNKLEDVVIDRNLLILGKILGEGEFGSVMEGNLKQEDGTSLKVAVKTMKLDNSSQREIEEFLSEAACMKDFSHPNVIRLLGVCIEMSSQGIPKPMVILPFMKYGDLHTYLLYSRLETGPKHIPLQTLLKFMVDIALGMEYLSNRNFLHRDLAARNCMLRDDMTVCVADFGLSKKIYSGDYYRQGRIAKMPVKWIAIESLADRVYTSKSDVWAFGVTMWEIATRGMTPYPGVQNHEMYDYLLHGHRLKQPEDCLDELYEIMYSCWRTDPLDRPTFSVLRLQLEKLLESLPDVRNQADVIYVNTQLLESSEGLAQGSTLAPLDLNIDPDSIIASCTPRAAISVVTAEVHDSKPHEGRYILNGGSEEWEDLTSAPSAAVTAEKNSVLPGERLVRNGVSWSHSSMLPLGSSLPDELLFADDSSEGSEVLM
In short: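 Phospho-Mer quantified by ELISA in lysates of transiently MERTK-transfected 293A cells after 1 h exposure to an 8-point compound series, serum-free, 0.3% DMSO. Activity normalized between DMSO-treated (100%) and reference inhibitor-treated (0%) lysates; IC50 via 4-parameter nonlinear regression.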

Met = Met (Homo sapiens, UniProt P08581); assay: Met autophosphorylation ELISA in PC-3 cells; assay type: cell-based; parameters: endogenous in cells; host or cells: PC-3 prostate cancer cells (ATCC #CRL-1435); conditions: Table 3 Cellular Activities, HGF-stimulated, phospho-Met ELISA, read-out: c-Met IC50
Sequence of Met (P08581 25-1390): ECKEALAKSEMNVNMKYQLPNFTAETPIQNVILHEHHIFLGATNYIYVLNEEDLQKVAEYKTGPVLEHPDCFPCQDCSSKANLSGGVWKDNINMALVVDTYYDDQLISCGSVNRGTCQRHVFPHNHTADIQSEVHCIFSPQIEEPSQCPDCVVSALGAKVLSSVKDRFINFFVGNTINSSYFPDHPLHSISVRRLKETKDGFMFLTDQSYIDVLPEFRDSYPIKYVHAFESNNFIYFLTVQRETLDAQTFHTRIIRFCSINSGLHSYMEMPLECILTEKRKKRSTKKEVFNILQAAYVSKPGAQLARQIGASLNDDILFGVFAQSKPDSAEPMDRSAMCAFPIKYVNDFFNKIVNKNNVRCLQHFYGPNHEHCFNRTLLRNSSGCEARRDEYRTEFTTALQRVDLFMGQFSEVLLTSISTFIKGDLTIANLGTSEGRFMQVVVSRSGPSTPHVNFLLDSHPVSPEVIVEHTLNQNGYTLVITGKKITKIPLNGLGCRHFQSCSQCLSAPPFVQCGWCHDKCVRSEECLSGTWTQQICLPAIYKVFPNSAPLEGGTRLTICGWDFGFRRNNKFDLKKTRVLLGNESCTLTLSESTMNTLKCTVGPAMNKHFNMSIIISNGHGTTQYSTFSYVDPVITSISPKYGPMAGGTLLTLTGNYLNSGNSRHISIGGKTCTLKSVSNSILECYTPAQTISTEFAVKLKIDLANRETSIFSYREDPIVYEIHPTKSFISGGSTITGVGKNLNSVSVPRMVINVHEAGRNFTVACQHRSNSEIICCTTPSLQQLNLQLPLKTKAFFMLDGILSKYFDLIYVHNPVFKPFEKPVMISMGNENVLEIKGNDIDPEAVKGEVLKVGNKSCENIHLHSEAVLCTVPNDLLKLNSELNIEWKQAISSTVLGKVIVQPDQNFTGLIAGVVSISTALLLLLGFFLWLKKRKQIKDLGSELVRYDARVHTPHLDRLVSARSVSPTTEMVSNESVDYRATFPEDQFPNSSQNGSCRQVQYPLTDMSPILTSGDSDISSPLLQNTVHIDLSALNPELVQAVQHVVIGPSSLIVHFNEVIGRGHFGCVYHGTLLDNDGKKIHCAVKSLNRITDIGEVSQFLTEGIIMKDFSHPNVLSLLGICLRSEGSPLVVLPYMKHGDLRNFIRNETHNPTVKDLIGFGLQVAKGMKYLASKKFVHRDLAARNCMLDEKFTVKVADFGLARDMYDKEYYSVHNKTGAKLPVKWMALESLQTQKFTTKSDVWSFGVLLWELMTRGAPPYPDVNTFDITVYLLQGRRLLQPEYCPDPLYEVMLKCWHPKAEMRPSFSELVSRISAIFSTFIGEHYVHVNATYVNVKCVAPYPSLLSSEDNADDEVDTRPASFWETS
In short: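 IC50 derived by 4-parameter logistic regression of phospho-Met (panTyr) sandwich ELISA signal, scaled between HGF-stimulated DMSO and reference-inhibitor lysates. PC-3 cells, serum-starved 3 h, received an 8-point compound series (0.3% DMSO) for 1 h before 10 min stimulation with 100 ng/mL human HGF.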

SMILES | IC50 (Mer) [nM] | IC50 (Met) [nM]
COc1cc2nccc(Oc3ccc(NC(=O)c4c(C)ncc(-c5ccc(C)o5)c4O)cc3F)c2nc1OC [Compound 120, N-[4-[(6,7-Dimethoxy-1,5-naphthyridin-4-yl)oxy]-3-fluorophenyl]-4-hydroxy-2-methyl-5-(5-methylfuran-2-yl)pyridine-3-carboxamide] | ≤ 100 | ≤ 100
COc1cc2nccc(Oc3ccc(NC(=O)c4c(C)n(C)c(C)c(-c5cccs5)c4=O)cc3F)c2nc1OC [Compound 168, N-[4-[(6,7-Dimethoxy-1,5-naphthyridin-4-yl)oxy]-3-fluorophenyl]-1,2,6-trimethyl-4-oxo-5-thiophen-2-ylpyridine-3-carboxamide] | ≤ 100 | ≤ 100
COc1cnc2c(Oc3ccc(NC(=O)c4cnc(C)c(-c5ccsc5)c4O)cc3F)ccnc2c1 [Compound 98, N-[3-Fluoro-4-[(7-methoxy-1,5-naphthyridin-4-yl)oxy]phenyl]-4-hydroxy-6-methyl-5-(3-thienyl)pyridine-3-carboxamide] | ≤ 100 | ≤ 100
COc1cc2nccc(Oc3ccc(NC(=O)c4cnc(C)c(-c5ccc(C)o5)c4O)cc3F)c2nc1OC [Compound 92, N-[4-[(6,7-Dimethoxy-1,5-naphthyridin-4-yl)oxy]-3-fluoro-phenyl]-4-hydroxy-6-methyl-5-(5-methyl-2-furyl)pyridine-3-carboxamide] | ≤ 100 | ≤ 100
COc1cnc2c(Oc3ccc(NC(=O)c4cnc(C)c(-c5cc(C)cs5)c4O)cc3F)ccnc2c1 [Compound 102, N-[3-Fluoro-4-[(7-methoxy-1,5-naphthyridin-4-yl)oxy]phenyl]-4-hydroxy-6-methyl-5-(4-methyl-2-thienyl) pyridine-3-carboxamide] | ≤ 100 | ≤ 100
COc1cc2nccc(Oc3ccc(NC(=O)c4cnc(C)c(-c5ccc(C6CC6)o5)c4O)cc3F)c2nc1OC [Compound 155A, 5-(5-Cyclopropylfuran-2-yl)-N-[4-[(6,7-dimethoxy-1,5-naphthyridin-4-yl)oxy]-3-fluorophenyl]-4-hydroxy-6-methylpyridine-3-carboxamide hydrochloride] | ≤ 100 | ≤ 100
COc1cc2nccc(Oc3ccc(NC(=O)c4cnc(C)c(-c5ccco5)c4O)cc3F)c2nc1OC [Compound 89, N-[4-[(6,7-Dimethoxy-1,5-naphthyridin-4-yl)oxy]-3-fluorophenyl]-5-(furan-2-yl)-4-hydroxy-6-methylpyridine-3-carboxamide] | ≤ 100 | ≤ 100
COc1cc2nccc(Oc3ccc(NC(=O)c4cnc(C)c(-c5ccsc5)c4O)cc3F)c2nc1OC [Compound 93, N-[4-[(6,7-Dimethoxy-1,5-naphthyridin-4-yl)oxy]-3-fluoro-phenyl]-4-hydroxy-6-methyl-5-(3-thienyl)pyridine-3-carboxamide] | ≤ 100 | ≤ 100
COc1cnc2c(Oc3ccc(NC(=O)c4cn(CCF)c(C)c(-c5ccoc5)c4=O)cc3F)ccnc2c1 [Compound 334, 1-(2-Fluoroethyl)-N-[3-fluoro-4-[(7-methoxy-1,5-naphthyridin-4-yl)oxy]phenyl]-5-(furan-3-yl)-6-methyl-4-oxopyridine-3-carboxamide] | ≤ 100 | ≤ 100
COc1cnc2c(Oc3ccc(NC(=O)c4cnc(C)c(-c5ccc(C)s5)c4O)cc3F)ccnc2c1 [Compound 101, N-[3-Fluoro-4-[(7-methoxy-1,5-naphthyridin-4-yl)oxy]phenyl]-4-hydroxy-6-methyl-5-(5-methyl-2-thienyl) pyridine-3-carboxamide] | ≤ 100 | ≤ 100
COCc1nc(C)c(-c2ccccn2)c(O)c1C(=O)Nc1ccc(Oc2ccnc3cc(OC)c(OC)nc23)c(F)c1 [Compound 195, N-[4-[(6,7-Dimethoxy-1,5-naphthyridin-4-yl)oxy]-3-fluorophenyl]-4-hydroxy-2-(methoxymethyl)-6-methyl-5-pyridin-2-ylpyridine-3-carboxamide] | ≤ 100 | ≤ 100
COc1cc2nccc(Oc3ccc(NC(=O)c4c(C)ncc(-c5ccco5)c4O)cc3F)c2nc1OC [Compound 119, N-[4-[(6,7-Dimethoxy-1,5-naphthyridin-4-yl)oxy]-3-fluorophenyl]-5-(furan-2-yl)-4-hydroxy-2-methylpyridine-3-carboxamide] | ≤ 100 | ≤ 100
COc1cc2nccc(Oc3ccc(NC(=O)c4c(C)nc(C)c(-c5cc(C)cs5)c4O)cc3F)c2nc1OC [Compound 137, N-[4-[(6,7-Dimethoxy-1,5-naphthyridin-4-yl)oxy]-3-fluorophenyl]-4-hydroxy-2,6-dimethyl-5-(4-methylthiophen-2-yl)pyridine-3-carboxamide] | ≤ 100 | ≤ 100
COc1cc2nccc(Oc3ccc(NC(=O)c4c(C)nc(C)c(-c5ccc(C)s5)c4O)cc3F)c2nc1OC [Compound 111, N-[4-[(6,7-Dimethoxy-1,5-naphthyridin-4-yl)oxy]-3-fluoro-phenyl]-4-hydroxy-2,6-dimethyl-5-(5-methyl-2-thienyl)pyridine-3-carboxamide] | ≤ 100 | ≤ 100

Second part, the compound after the results:

IC50 (Mer) [nM] | IC50 (Met) [nM] | SMILES
≤ 100 | ≤ 100 | COc1cc2nccc(Oc3ccc(NC(=O)c4c(C)n(C)c(C)c(-c5ccco5)c4=O)cc3F)c2nc1OC [Compound 160, N-[4-[(6,7-Dimethoxy-1,5-naphthyridin-4-yl)oxy]-3-fluorophenyl]-5-(furan-2-yl)-1,2,6-trimethyl-4-oxopyridine-3-carboxamide]
≤ 100 | ≤ 100 | COc1cc2nccc(Oc3ccc(NC(=O)c4cnc(C)c(-c5cnoc5)c4O)cc3F)c2nc1OC [Compound 140, N-[4-[(6,7-Dimethoxy-1,5-naphthyridin-4-yl)oxy]-3-fluorophenyl]-4-hydroxy-6-methyl-5-(1,2-oxazol-4-yl)pyridine-3-carboxamide]
≤ 100 | ≤ 100 | COc1cc2nccc(Oc3ccc(NC(=O)c4c(C)nc(C)c(-c5ccc(C)o5)c4O)cc3F)c2nc1OC [Compound 110, N-[4-[(6,7-Dimethoxy-1,5-naphthyridin-4-yl)oxy]-3-fluoro-phenyl]-4-hydroxy-2,6-dimethyl-5-(5-methyl-2-furyl)pyridine-3-carboxamide]
≤ 100 | ≤ 100 | COc1cc2nccc(Oc3ccc(NC(=O)c4c(C)nc(C)c(-c5cccs5)c4O)cc3F)c2nc1OC [Compound 107]
≤ 100 | ≤ 100 | COc1cc2nccc(Oc3ccc(NC(=O)c4cnc(C)c(-c5cscn5)c4O)cc3F)c2nc1OC [Compound 142, N-[4-[(6,7-Dimethoxy-1,5-naphthyridin-4-yl)oxy]-3-fluorophenyl]-4-hydroxy-6-methyl-5-(1,3-thiazol-4-yl)pyridine-3-carboxamide]
≤ 100 | ≤ 100 | COc1cc2nccc(Oc3ccc(NC(=O)c4cn(CCF)c(C)c(-c5ccsc5)c4=O)cc3F)c2nc1OC [Compound 332, N-[4-[(6,7-Dimethoxy-1,5-naphthyridin-4-yl)oxy]-3-fluorophenyl]-1-(2-fluoroethyl)-6-methyl-4-oxo-5-thiophen-3-ylpyridine-3-carboxamide]
≤ 100 | ≤ 100 | COc1cc2nccc(Oc3ccc(NC(=O)c4c(C)ncc(-c5sccc5C)c4O)cc3F)c2nc1OC [Compound 126, N-[4-[(6,7-Dimethoxy-1,5-naphthyridin-4-yl)oxy]-3-fluorophenyl]-4-hydroxy-2-methyl-5-(3-methylthiophen-2-yl)pyridine-3-carboxamide]
≤ 100 | ≤ 100 | COc1cc2nccc(Oc3ccc(NC(=O)c4c(C)nc(C)c(-c5cc(C)nn5C)c4O)cc3F)c2nc1OC [Compound 109, N-[4-[(6,7-Dimethoxy-1,5-naphthyridin-4-yl)oxy]-3-fluoro-phenyl]-5-(2,5-dimethylpyrazol-3-yl)-4-hydroxy-2,6-dimethyl-pyridine-3-carboxamide]
